In US7402548B2, “Benzoxazole compounds, process for producing the same and herbicides” (Kyoyu Agri Co., Ltd., priority 2000, dated 2008):

What was measured:
barnyard grass [1] = experiment: Herbicidal test for paddy field; format: in vivo, Eschinochloa crusgalli; conditions: 500 g/ha, dropwise addition to paddy water at 1.5 leaf stage of barnyard grass; glass house 25° C., 3 weeks; rank 0-5 vs non-treated district
Experimental: (§1) Wagner pots, each having an area of 1/5000 are, were packed with Ube soil (alluvial soil) and planted with seeds or tubers of young rice plant, barnyard grass, bulrush, Cyperus serotinus Rottb., arrowhead and monochoria. Then, the pots were filled with water to a depth of 3 cm.
(§2) Each wettable powder of the desired Compounds (I) shown in Tables 1 to 21, 24, 25, 28 and 29 prepared in accordance with Example 2 was diluted with water containing a surfactant (0.05%) and subjected to dropwise addition treatment by using pipet so that an effective concentration of the compound (I) in each herbicide became 500 g/ha at 1.5 leaf stage of barnyard grass.
(§3) These plants were controlled in a glass house at an average temperature of 25° C. for 3 weeks, and then herbicidal effects thereof were investigated.
(§4) The herbicidal effects are evaluated according to the following 6 ranks as compared with non-treated district. (0: normal development, 1: Less damaged, 2: Slightly damaged, 3: Moderately damaged, 4: Severely damaged, 5: All killed). Incidentally, “-” in the column means not investigated.

bulrush = experiment: Herbicidal test for paddy field; format: in vivo, Scrips juncoides; conditions: 500 g/ha, dropwise addition to paddy water at 1.5 leaf stage of barnyard grass; glass house 25° C., 3 weeks; rank 0-5 vs non-treated district
Experimental: as §1, §2, §3, §4

Cyperus serotinus Rottb. = experiment: Herbicidal test for paddy field; format: in vivo; conditions: 500 g/ha, dropwise addition to paddy water at 1.5 leaf stage of barnyard grass; glass house 25° C., 3 weeks; rank 0-5 vs non-treated district
Experimental: as §1, §2, §3, §4

corn [2] = experiment: Soil treatment test for upland field; format: in vivo; parameters: key: 0 = normal development, 5 = all killed; conditions: 500 g/ha, 3 weeks, glass house 25° C.
Summary of the method: (§5)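 Seeds were sown in alluvial soil in pots, and a wettable powder diluted in water with 0.05% surfactant was sprayed evenly on the soil surface at 500 g/ha. Plants were kept in a glass house at about 25° C for 3 weeks, then damage was scored 0–5 against untreated controls.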

solgum [3] = experiment: Soil treatment test for upland field; format: in vivo; parameters: key: 0 = normal development, 5 = all killed; conditions: 500 g/ha, 3 weeks, glass house 25° C.
Summary of the method: as §5

soybean [4] = experiment: Soil treatment test for upland field; format: in vivo; parameters: key: 0 = normal development, 5 = all killed; conditions: 500 g/ha, 3 weeks, glass house 25° C.
Summary of the method: as §5

sugar beat [5] = experiment: Soil treatment test for upland field; format: in vivo; parameters: key: 0 = normal development, 5 = all killed; conditions: 500 g/ha, 3 weeks, glass house 25° C.
Summary of the method: as §5

wheat [6] = experiment: Soil treatment test for upland field; format: in vivo; parameters: key: 0 = normal development, 5 = all killed; conditions: 500 g/ha, 3 weeks, glass house 25° C.
Summary of the method: as §5

Large crabgrass [7] = experiment: Soil treatment test for upland field; format: in vivo, Digitaria adscendens; parameters: key: 0 = normal development, 5 = all killed; conditions: 500 g/ha, 3 weeks, glass house 25° C.
Summary of the method: as §5

barnyard grass [8] = experiment: Soil treatment test for upland field; format: in vivo, Eschinochloa crusgalli; parameters: key: 0 = normal development, 5 = all killed; conditions: 500 g/ha, 3 weeks, glass house 25° C.
Summary of the method: as §5

green foxtail [9] = experiment: Soil treatment test for upland field; format: in vivo, Setaria viridis; parameters: key: 0 = normal development, 5 = all killed; conditions: 500 g/ha, 3 weeks, glass house 25° C.
Summary of the method: as §5

blackgrass [10] = experiment: Soil treatment test for upland field; format: in vivo, Alopecurus aegualis; parameters: key: 0 = normal development, 5 = all killed; conditions: 500 g/ha, 3 weeks, glass house 25° C.
Summary of the method: as §5

annual bluegrass [11] = experiment: Soil treatment test for upland field; format: in vivo, Poa annua; parameters: key: 0 = normal development, 5 = all killed; conditions: 500 g/ha, 3 weeks, glass house 25° C.
Summary of the method: as §5

common lambsquarters [12] = experiment: Soil treatment test for upland field; format: in vivo, Chenopodium album; parameters: key: 0 = normal development, 5 = all killed; conditions: 500 g/ha, 3 weeks, glass house 25° C.
Summary of the method: as §5

livid amaranth [13] = experiment: Soil treatment test for upland field; format: in vivo, Amaranthus lividus; parameters: key: 0 = normal development, 5 = all killed; conditions: 500 g/ha, 3 weeks, glass house 25° C.
Summary of the method: as §5

velvetleaf [14] = experiment: Soil treatment test for upland field; format: in vivo, Abutilon theophrasti; parameters: key: 0 = normal development, 5 = all killed; conditions: 500 g/ha, 3 weeks, glass house 25° C.
Summary of the method: as §5

morning glory [15] = experiment: Soil treatment test for upland field; format: in vivo, Ipomoea spps.; parameters: key: 0 = normal development, 5 = all killed; conditions: 500 g/ha, 3 weeks, glass house 25° C.
Summary of the method: as §5

corn [16] = experiment: Foliar spread test for upland field; format: in vivo; parameters: key: 0 = normal development, 5 = all killed (6 ranks vs. untreated); conditions: foliar spray, 500 ppm, 3 weeks, glass house 25° C.
Summary of the method: (§6)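 Plants grown about 2 weeks at 25 °C in volcanic ash soil were sprayed with wettable powder diluted to 500 ppm in water with 0.5% surfactant. After 3 weeks at 25 °C, damage was scored 0 (normal) to 5 (all killed) against untreated plants.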

cotton = experiment: Foliar spread test for upland field; format: in vivo; parameters: key: 0 = normal development, 5 = all killed (6 ranks vs. untreated); conditions: foliar spray, 500 ppm, 3 weeks, glass house 25° C.
Summary of the method: as §6

solgum [17] = experiment: Foliar spread test for upland field; format: in vivo; parameters: key: 0 = normal development, 5 = all killed (6 ranks vs. untreated); conditions: foliar spray, 500 ppm, 3 weeks, glass house 25° C.
Summary of the method: as §6

soybean [18] = experiment: Foliar spread test for upland field; format: in vivo; parameters: key: 0 = normal development, 5 = all killed (6 ranks vs. untreated); conditions: foliar spray, 500 ppm, 3 weeks, glass house 25° C.
Summary of the method: as §6

sugar beat [19] = experiment: Foliar spread test for upland field; format: in vivo; parameters: key: 0 = normal development, 5 = all killed (6 ranks vs. untreated); conditions: foliar spray, 500 ppm, 3 weeks, glass house 25° C.
Summary of the method: as §6

wheat [20] = experiment: Foliar spread test for upland field; format: in vivo; parameters: key: 0 = normal development, 5 = all killed (6 ranks vs. untreated); conditions: foliar spray, 500 ppm, 3 weeks, glass house 25° C.
Summary of the method: as §6

Large crabgrass [21] = experiment: Foliar spread test for upland field; format: in vivo, Digitaria adscendens; parameters: key: 0 = normal development, 5 = all killed (6 ranks vs. untreated); conditions: foliar spray, 500 ppm, 3 weeks, glass house 25° C.
Summary of the method: as §6

barnyardgrjass = experiment: Foliar spread test for upland field; format: in vivo, Eschinochloa crusgalli; parameters: key: 0 = normal development, 5 = all killed (6 ranks vs. untreated); conditions: foliar spray, 500 ppm, 3 weeks, glass house 25° C.
Summary of the method: as §6

green foxtail [22] = experiment: Foliar spread test for upland field; format: in vivo, Setaria viridis; parameters: key: 0 = normal development, 5 = all killed (6 ranks vs. untreated); conditions: foliar spray, 500 ppm, 3 weeks, glass house 25° C.
Summary of the method: as §6

blackgrass [23] = experiment: Foliar spread test for upland field; format: in vivo, Alopecurus aegualis; parameters: key: 0 = normal development, 5 = all killed (6 ranks vs. untreated); conditions: foliar spray, 500 ppm, 3 weeks, glass house 25° C.
Summary of the method: as §6

annual bluegrass [24] = experiment: Foliar spread test for upland field; format: in vivo, Poa annua; parameters: key: 0 = normal development, 5 = all killed (6 ranks vs. untreated); conditions: foliar spray, 500 ppm, 3 weeks, glass house 25° C.
Summary of the method: as §6

common lambsquarters [25] = experiment: Foliar spread test for upland field; format: in vivo, Chenopodium album; parameters: key: 0 = normal development, 5 = all killed (6 ranks vs. untreated); conditions: foliar spray, 500 ppm, 3 weeks, glass house 25° C.
Summary of the method: as §6

livid amaranth [26] = experiment: Foliar spread test for upland field; format: in vivo, Amaranthus lividus; parameters: key: 0 = normal development, 5 = all killed (6 ranks vs. untreated); conditions: foliar spray, 500 ppm, 3 weeks, glass house 25° C.
Summary of the method: as §6

velvetleaf [27] = experiment: Foliar spread test for upland field; format: in vivo, Abutilon theophrasti; parameters: key: 0 = normal development, 5 = all killed (6 ranks vs. untreated); conditions: foliar spray, 500 ppm, 3 weeks, glass house 25° C.
Summary of the method: as §6

morning glory [28] = experiment: Foliar spread test for upland field; format: in vivo, Ipomoea spps.; parameters: key: 0 = normal development, 5 = all killed (6 ranks vs. untreated); conditions: foliar spray, 500 ppm, 3 weeks, glass house 25° C.
Summary of the method: as §6

Row | SMILES | Effects Barnyardgrass (barnyard grass [1]) | Effects Bulrush (bulrush) | Effects Cyperus serotinus Rottb. (Cyperus serotinus Rottb.) | Effects Corn (corn [2]) | Effects Solgum (solgum [3]) | Effects Wheat (wheat [6]) | Effects Large crabgrass (Large crabgrass [7]) | Effects Barnyardgrass (barnyard grass [8]) | Effects Green foxtail (green foxtail [9]) | Effects Blackgrass (blackgrass [10]) | Effects Annual bluegrass (annual bluegrass [11]) | Effects Common lambsquarters (common lambsquarters [12]) | Effects Livid amaranth (livid amaranth [13]) | Effects Morning glory (morning glory [15]) | Effects Corn (corn [16]) | Effects Sotton (cotton) | Effects Solgum (solgum [17]) | Effects Soybean (soybean [18]) | Effects Sugar beat (sugar beat [19]) | Effects Wheat (wheat [20]) | also measured
1 | CCC(=Cc1cccc(C(F)(F)F)c1)c1nc2cc(F)c(F)cc2o1 [I-c-111] | 5 | 4 | 1 | 2 | 3 | 5 | 5 | 5 | 5 | 5 | 5 | 5 | 5 | 4 | 3 | 4 | 4 | 5 | 4 | 3 | Effects Soybean (soybean [4]): 5; Effects Sugar beat (sugar beat [5]): 5; Effects Velvetleaf (velvetleaf [14]): 5; Effects Large crabgrass (Large crabgrass [21]): 4; Effects Barnyardgrass (barnyardgrjass): 3; Effects Green foxtail (green foxtail [22]): 4; Effects Blackgrass (blackgrass [23]): 4; Effects Annual bluegrass (annual bluegrass [24]): 4; Effects Common lambsquarters (common lambsquarters [25]): 5; Effects Livid amaranth (livid amaranth [26]): 5; Effects Velvetleaf (velvetleaf [27]): 3; Effects Morning glory (morning glory [28]): 5
2 | CCC(=Cc1cccc(C(F)(F)F)c1)c1nc2cc(C#N)c(F)cc2o1 [I-c-137] | 4 | 4 | 2 | 2 | 2 | 1 | 5 | 5 | 5 | 5 | 5 | 5 | 5 | 5 | 3 | 4 | 2 | 5 | 4 | 2 | Effects Soybean (soybean [4]): 3; Effects Sugar beat (sugar beat [5]): 5; Effects Velvetleaf (velvetleaf [14]): 5; Effects Large crabgrass (Large crabgrass [21]): 4; Effects Barnyardgrass (barnyardgrjass): 3; Effects Green foxtail (green foxtail [22]): 4; Effects Blackgrass (blackgrass [23]): 3; Effects Annual bluegrass (annual bluegrass [24]): 4; Effects Common lambsquarters (common lambsquarters [25]): 5; Effects Livid amaranth (livid amaranth [26]): 5; Effects Velvetleaf (velvetleaf [27]): 4; Effects Morning glory (morning glory [28]): 5
3 | CCCC(=Cc1cccc(C(F)(F)F)c1)c1nc2cc(C#N)c(F)cc2o1 [I-c-139] | 4 | 3 | 1 | 2 | 3 | 2 | 5 | 5 | 5 | 5 | 5 | 5 | 5 | 5 | 2 | 4 | 2 | 5 | 4 | 2 | Effects Soybean (soybean [4]): 5; Effects Sugar beat (sugar beat [5]): 5; Effects Velvetleaf (velvetleaf [14]): 5; Effects Large crabgrass (Large crabgrass [21]): 4; Effects Barnyardgrass (barnyardgrjass): 3; Effects Green foxtail (green foxtail [22]): 4; Effects Blackgrass (blackgrass [23]): 4; Effects Annual bluegrass (annual bluegrass [24]): 4; Effects Common lambsquarters (common lambsquarters [25]): 5; Effects Livid amaranth (livid amaranth [26]): 5; Effects Velvetleaf (velvetleaf [27]): 4; Effects Morning glory (morning glory [28]): 5
4 | CCC(=Cc1cccc(C(F)(F)F)c1)c1nc2cc(C#N)ccc2o1 [I-c-81] | 5 | 5 | 4 | 2 | 2 | 3 | 5 | 5 | 5 | 5 | 5 | 5 | 5 | 5 | 3 | 4 | 3 | 5 | 4 | 2 | Effects Soybean (soybean [4]): 3; Effects Sugar beat (sugar beat [5]): 5; Effects Velvetleaf (velvetleaf [14]): 5; Effects Large crabgrass (Large crabgrass [21]): 4; Effects Barnyardgrass (barnyardgrjass): 3; Effects Green foxtail (green foxtail [22]): 4; Effects Blackgrass (blackgrass [23]): 3; Effects Annual bluegrass (annual bluegrass [24]): 4; Effects Common lambsquarters (common lambsquarters [25]): 5; Effects Livid amaranth (livid amaranth [26]): 5; Effects Velvetleaf (velvetleaf [27]): 3; Effects Morning glory (morning glory [28]): 5
5 | FC(F)(F)c1cccc(C=Cc2nc3ccccc3o2)c1 [I-c-1] | 3 | 3 | 3 | 1 | 1 | 0 | 5 | 5 | 5 | 5 | 5 | 5 | 5 | 1 | 2 | 2 | 1 | 5 | 3 | 1 | Effects Large crabgrass (Large crabgrass [21]): 3; Effects Barnyardgrass (barnyardgrjass): 1; Effects Green foxtail (green foxtail [22]): 3; Effects Blackgrass (blackgrass [23]): 1; Effects Annual bluegrass (annual bluegrass [24]): 1; Effects Common lambsquarters (common lambsquarters [25]): 3; Effects Livid amaranth (livid amaranth [26]): 4; Effects Velvetleaf (velvetleaf [27]): 2; Effects Morning glory (morning glory [28]): 5
